Data: patent US12351652B2, “Hemagglutinin-binding peptide” (priority 2019, dated 2025)
*1 amine or outer side, *2 acyl side, *3 side chain or, on linkers, in order; H or OH if unused. Where a SMILES comes first, the peptide text is derived from it. Bridges are numbered along the chain shown (N, C = ends). [ ]: non-standard residue; d: D form. The star is where a group is joined. Ethylenediamine = C(CN[*:2])N[*:1]; Hyp = O=C(O)[C@@H]1C[C@@H](O)CN1; NMeF = CN[C@@H](Cc1ccccc1)C(=O)O; Decanoyl = CCCCCCCCCC(=O)*; NMeA = CN[C@@H](C)C(=O)O; Sar = CNCC(=O)O

How the values were obtained:
[1] = system: influenza virus A/Nagasaki/HA-58/2009 (H1N1); format: cell-based
[2] = system: influenza virus A/Puerto Rico/8/34 (H1N1); format: cell-based
[3] = system: influenza virus A/Duck/Pennsylvania/84 (H5N2); format: cell-based
[4] = system: influenza virus A/Puerto Rico/8/34 (H1N1); parameters: species or system BALB/cA Jcl [SPF] mice; conditions: mouse

Compound: CCCCCCCCCC(=O)NCCNC(=O)[C@@H]1CSCC(=O)N[C@@H](Cc2c[nH]c3ccccc23)C(=O)N[C@@H]([C@@H](C)O)C(=O)N(C)CC(=O)N[C@@H](CC(=O)O)C(=O)N(C)[C@@H](Cc2ccccc2)C(=O)N(C)[C@@H](Cc2ccccc2)C(=O)N[C@@H](C)C(=O)N(C)[C@@H](C)C(=O)N[C@@H](Cc2cnc[nH]2)C(=O)N[C@@H](Cc2ccc(O)cc2)C(=O)N[C@@H]([C@@H](C)O)C(=O)N[C@@H](C(C)C)C(=O)N2C[C@H](O)C[C@H]2C(=O)N[C@@H](C)C(=O)N1 [HA152] ({CH2CO}-WT[Sar]D[NMeF][NMeF]A[NMeA]HYTV[Hyp]AC-{Ethylenediamine-Decanoyl}; thioether N-15)
- inhibition of cell death in low concentration range [1]: remarkable inhibition of cell death
- inhibition of cell death in low concentration range [2]: remarkable inhibition of cell death
- inhibition of cell death in low concentration range [3]: remarkable inhibition of cell death
- in vivo anti-virus activity compared to peramivir [4]: comparable or superior to peramivir
- survival rate ([4]; in vivo, iv): 60%
